In patent publication US20260028338A1, “HETEROBIFUNCTIONAL COMPOUNDS AND METHODS OF TREATING DISEASE” (Halda Therapeutics OpCo, Inc., priority 2023, published 2026) one finds Kd, GI50 and IC50 data, which are given here for 9 compounds.

Test [1] addresses T1, biotinylated BCL6 (5-129) (Homo sapiens, UniProt P41182).
T1 construct: biotinylated BCL6 (5-129) was diluted in 10 mM HEPES pH 7.4; biotin (biotinylated)
The test can be described thus: SPR assay for binding affinity to BCL6. The note with it: Biacore 8K, 25° C., immobilized biotinylated BCL6 (5-129). The protocol:
Exemplary compounds were tested for ability to bind to B-cell lymphoma 6 (BCL6) protein.
Binding studies by surface plasmon resonance (SPR) were performed using a Biacore 8K (Cytiva) instrument at 25° C. Briefly, biotinylated BCL6 (5-129) was diluted in 10 mM HEPES pH 7.4, 150 mM NaCl, 0.05% Surfactant P20, 0.5 mM TCEP, 3% DMSO to 1-5 μg/mL and was immobilized on an SA sensor chip (Cytiva, BR100032), resulting in surface densities at 1000-3000 resonance units (RUs). Test compounds were serially diluted five times in the same buffer and were injected to the immobilized surface. Kinetic determination experiments were performed using single-cycle kinetics with 110-120 s contact time, 1000-4000 s dissociation time, 30 μL/min flow rate. Binding data were analyzed by using Biacore insight evaluation software to determine KD values for test compounds.

The test system of test [2] is Su-DHL-4 cell line. The test can be described thus: Cellular growth inhibition assay, Su-DHL-4 cells (CellTiter-Glo). As to conditions: Homo sapiens; Su-DHL-4 cell line (DLBCL), 72 hours, CellTiter-Glo 2.0. The test is classed as cell-based. The procedure:
(§1) Exemplary compounds were tested for ability to inhibit the proliferation of Su-DHL-4 and Farage cells. Su-DHL-4 and Farage cells are commercially available diffuse large B cell lymphoma cell lines (DLBCL).
(§2) Su-DHL-4 and Farage cells were purchased from American Type Cell Culture (ATCC Cat #CRL-2957/CRL-2630) and then seeded on poly-D-lysine coated, black clear-bottom 384-well plates at 3000/well in 25 μL Roswell Park Memorial Institute media (RPMI-1640) supplemented with 10% w/w Fetal bovine serum (FBS) and 1% w/w Pen-Strep. Pen-Strep is a commercially available mixture of penicillin G and streptomycin, which is used in mammalian cell culture media to prevent bacterial contamination. Roswell Park Memorial Institute media (RPMI-1640) supplemented with 10% w/w fetal bovine serum (FBS), and 1% w/w Pen-Strep is herein referred to as Treatment Medium. Following seeding of cells in the plates, the plates were spun at 300×g for 30 seconds, then equilibrated to room temperature for 30 minutes, and then deposited in a humidified tissue culture incubator maintained at 37° C. with 5% CO2.
(§3) At 24 hours after seeding of the cells, dilutions of test compound were prepared in DMSO and dissolved in Treatment Medium, to achieve a final DMSO concentration of 0.5% w/w, thereby providing the Test Compound Solution. A 25 μL aliquot of the Test Compound Solution was added to cells in the well plates. An equal volume of a solution containing DMSO and Treatment Medium was used as a negative control. Following treatment of cells with Test Compound Solution or said equal volume of a solution containing DMSO and Treatment Medium, the plates were spun at 300×g for 30 seconds, and then left in an incubator for 72 hours.
(§4) At the end of the treatment duration, cell viability was quantified with CellTiter-Glo 2.0 reagent (Promega Cat #G9243). For this purpose, plates were equilibrated to room temperature for 30 minutes, and then 25 μL of CellTiter-Glo 2.0 reagent was added to cells in the plate wells. Plates were then agitated on a shaker for two minutes at 500 rpm and subsequently incubated at room temperature for 10 minutes. Following incubation, the plates were spun at 3000×g for 30 seconds, then sealed with an optical adhesive cover, and luminescence readings were measured with an EnVision Plate Reader (Perkin Elmer).
(§5) Data was normalized using zero luminescence for baseline. A four-parameter non-linear regression curve fit was applied to dose-response data in GraphPad Prism data analysis software to determine the half-maximal growth inhibitory concentration (GI50) for each test compound.

Test [3] deals with T-Rex 293 cell line SC cells having increased expression of BCL6 protein. The test can be described thus: Cellular growth inhibition assay, T-Rex 293 SC cells with doxycycline (CellTiter-Glo). The note with it: T-Rex 293 SC cells with 10 ng/mL doxycycline (increased BCL6 expression), 72 hours, CellTiter-Glo 2.0. The test is classed as cell-based. The protocol: (§6) Exemplary compounds were tested for ability to inhibit the proliferation of the following types of cells: (i) a T-Rex 293 cell line having increased expression of BCL6 protein due to exposure of doxycycline and (ii) a T-Rex 293 cell line lacking increased expression of BCL6 protein.
(§7) The following types of cells were prepared for this experiment: (i) a T-Rex 293 cell line having increased expression of BCL6 protein due to exposure to doxycycline and (ii) a T-Rex 293 cell line lacking increased expression of BCL6 protein. Ability of the test compounds to inhibit proliferation of the foregoing cell types was evaluated according to the procedures set forth below.
(§8) The doxycycline-inducible BCL6 protein expressing cell line was established using the following protocol: T-Rex 293 cells were purchased from Invitrogen (Cat #R71007) and transfected using Lipofectamine 2000 with the wild-type BCL6 protein sequence cloned into the pcDNA4/TO vector. Transfected cells were selected using 400 μg/mL Zeocin (Invitrogen Cat #R25001). Following selection, single clones were raised and maintained in Dulbecco's Modified Eagle Medium (DMEM) supplemented with 10% w/w Tetracycline-free fetal bovine serum (FBS) and 250 μg/mL Zeocin. Clones were analyzed for expression of BCL6 protein in the presence and absence of 10 ng/mL doxycycline (Sigma Cat #D9891), and a single doxycycline-inducible clone (hereinafter “SC”) was selected for use in downstream assays.
(§9) The SC cells were seeded on poly-D-lysine coated, black clear-bottom 384-well plates at 2500/well, in 25 μL Dulbecco's Modified Eagle Medium (DMEM) supplemented with 10% w/w Tetracycline-free fetal bovine serum (FBS) and 1% w/w pen-strep, with or without 10 ng/mL doxycycline. Pen-Strep is a commercially available mixture of penicillin G and streptomycin, which is used in mammalian cell culture media to prevent bacterial contamination. Dulbecco's Modified Eagle Medium (DMEM) supplemented with 10% w/w Tetracycline-free fetal bovine serum (FBS) and 1% w/w pen-strep, with or without 10 ng/mL doxycycline is herein referred to as Treatment Medium. Following seeding of cells in the plates, the plates were spun at 300×g for 30 seconds, then equilibrated to room temperature for 30 minutes, and then deposited in a humidified tissue culture incubator maintained at 37° C. with 5% CO2.
as §3, §4, §5
(In ATP-based viability assays light output follows the ATP content of the culture.)

Test [4] has as its target T2, His-tagged BRD4 BD1 (46-168) (Homo sapiens, UniProt O60885).
T2 construct: His-tagged BRD4 BD1 (46-168) and biotinylated histone H4K5/8/12/16(Ac) peptide
The test can be described thus: AlphaLISA competition assay, BRD4 BD1. The test is classed as binding. As to conditions: BRD4-BD1, AlphaLISA competition with biotinylated histone H4K5/8/12/16(Ac) peptide, 10 nM. The procedure: (§10) Exemplary compounds were tested for ability to bind to bromodomain-containing protein 4 (BRD4).
(§11) Compounds were tested using a developed AlphaLISA competition assay. Briefly, His-tagged BRD4 BD1 (46-168) and biotinylated histone H4K5/8/12/16(Ac) peptide (ANASPEC, AS-64989-1) were incubated in 20 mM HEPES pH 7.5, 100 mM NaCl, 0.5 mM TCEP, 0.1% BSA, 0.02% CHAPS at a final concentration of 10 nM. Test compounds were serially diluted ten times in the same buffer and were added to the BRD4-peptide mixture for 1 h incubation at room temperature. Following incubation, Streptavidin AlphaLISA acceptor beads (PerkinElmer, AL125M) were added to BRD4-peptide-compound samples to a final concentration of 0.01 mg/mL for a 0.5 h incubation at room temperature in the dark. Following incubation, the same amount of Nickel Chelate Alpha donor beads (PerkinElmer, AS101M) were added to the samples for a final 1 h incubation. The AlphaLISA signals were measured using an EnVision plate reader (PerkinElmer). The data were uploaded to Screening Ultra (Dotmatics) to determine the half-maximal inhibitory concentration (IC50) for each test compound.

The subject of test [5] is T-Rex 293 cell line SC cells lacking increased expression of BCL6 protein. The test can be described thus: Cellular growth inhibition assay, T-Rex 293 SC cells without doxycycline (CellTiter-Glo). The note with it: T-Rex 293 SC cells not exposed to doxycycline (no increased BCL6 expression), 72 hours, CellTiter-Glo 2.0. The test is classed as cell-based. The protocol:
as §6, §7, §8, §9, §3, §4, §5

For test [6], the system named is Farage cell line. The test can be described thus: Cellular growth inhibition assay, Farage cells (CellTiter-Glo). The test is classed as cell-based. As to conditions: Farage cell line (DLBCL), 72 hours, CellTiter-Glo 2.0. The procedure:
as §1, §2, §3, §4, §5

Test [7] concerns the target T3, His-tagged BRD4 BD2 (333-460) (Homo sapiens, UniProt O60885).
T3 construct: The same assay was developed for His-tagged BRD4 BD2 (333-460) and biotinylated histone H4K5/8/12/16(Ac) peptide
The test can be described thus: AlphaLISA competition assay, BRD4 BD2. The test is classed as binding. As to conditions: BRD4-BD2, AlphaLISA competition with biotinylated histone H4K5/8/12/16(Ac) peptide, 20 nM. The procedure: as §10, §11
The same assay was developed for His-tagged BRD4 BD2 (333-460) and biotinylated histone H4K5/8/12/16(Ac) peptide at a final concentration of 20 nM.
A general note: Alpha assays give light when donor and acceptor beads are brought close together.

Bounds are passed on as bounds.

With `CNC(=O)COc1cc2cc(Nc3nc(N4CCC(CCN5CCN(CCN(C)[C@H]6C[C@H](Oc7ccc(C(C)(C)O)cc7-c7cn(C)c(=O)c8[nH]ccc78)C6)CC5)CC4)ncc3Cl)ccc2n(C)c1=O` [Compound I-21], the Kd in test [1] was 1 to 10 nM. Besides, the GI50 was less than 500 nM in test [2], less than 500 nM in test [3], 1500 to 3000 nM in test [5] and less than 500 nM in test [6]. The IC50 in test [4] and in test [7] was less than 5 nM each time.

The compound `CNC(=O)COc1cc2cc(Nc3nc(N4CCC(CN5CCN(CCN(C)[C@H]6C[C@H](Oc7ccc(C(C)(C)O)cc7-c7cn(C)c(=O)c8[nH]ccc78)C6)CC5)CC4)ncc3Cl)ccc2n(C)c1=O` [Compound I-20] yielded a Kd in test [1] of 1 to 10 nM. Besides, the GI50 in test [2] is less than 500 nM; in test [3], less than 500 nM; in test [5], 500 to 1500 nM; in test [6], less than 500 nM. The results for the IC50 in test [4] and in test [7] were 5 to 50 nM and less than 5 nM, respectively.

As to `CCS(=O)(=O)Nc1ccc(Oc2cccc(OCCN3CCN(CCN4CCN(c5ncc(Cl)c(Nc6ccc7c(c6)cc(OCC(=O)NC)c(=O)n7C)n5)CC4)CC3)c2)c(-c2cn(C)c(=O)c3[nH]ccc23)c1` [Compound I-15], in test [1], the Kd fell in the range of 1 to 10 nM. In addition, the GI50 in test [2] is less than 500 nM; in test [3] it was less than 500 nM; in test [5], 500 to 1500 nM; in test [6] it was less than 500 nM. Moreover, the IC50 in test [4] and in test [7] was less than 5 nM each time.

In the case of `CCS(=O)(=O)Nc1ccc(Oc2cccc(OCCOCCOC3CCN(c4ncc(Cl)c(Nc5ccc6c(c5)cc(OCC(=O)NC)c(=O)n6C)n4)CC3)c2)c(-c2cn(C)c(=O)c3[nH]ccc23)c1` [Compound I-1, 2-[[6-[[5-chloro-2-[4-[2-[2-[3-[4-(ethylsulfonylamino)-2-(6-methyl-7-oxo-1H-pyrrolo[2,3-c]pyridin-4-yl)phenoxy]phenoxy]ethoxy]ethoxy]-1-piperidyl]pyrimidin-4-yl]amino]-1-methyl-2-oxo-3-quinolyl]oxy]-N-methyl-acetamide], the GI50 in test [2] was less than 500 nM.

As for `CNC(=O)COc1cc2cc(Nc3nc(N4CCC(N5CCN(Cc6cccc(Oc7ccc(C(C)(C)O)cc7-c7cn(C)c(=O)c8[nH]ccc78)c6)CC5)CC4)ncc3Cl)ccc2n(C)c1=O` [Compound I-40], the Kd in test [1] was in the range of 10 to 100 nM. The GI50 in test [3], in test [5] and in test [6] was less than 500 nM throughout. Also, the IC50 in test [4] and in test [7] was less than 5 nM each time.

`CNC(=O)COc1cc2cc(Nc3nc(N4CCC(CN5CC(Oc6ccc(C7=N[C@@H](Cc8ncco8)c8nnc(C)n8-c8sc(C)c(C)c87)cc6)C5)CC4)ncc3Cl)ccc2n(C)c1=O` [Compound I-26] returned a Kd in test [1] of 10 to 100 nM. The GI50 in test [2], in test [3] and in test [5] was less than 500 nM throughout. Also, the IC50 in test [4] and in test [7] was less than 5 nM each time.

With `CCS(=O)(=O)Nc1ccc(Oc2cccc(OCCN3CCN(CC4CCN(c5ncc(Cl)c(Nc6ccc7c(c6)cc(OCC(=O)NC)c(=O)n7C)n5)CC4)CC3)c2)c(-c2cn(C)c(=O)c3[nH]ccc23)c1` [Compound I-4], in test [1], the Kd was more than 100 nM. Also, the GI50 in test [2], in test [3] and in test [5] was less than 500 nM each time. Moreover, the figures for the IC50 in test [4] and in test [7] were 50 to 500 nM and 5 to 50 nM, respectively.

Take `CNC(=O)COc1cc2cc(Nc3nc(N4CCC(CN5CCN(Cc6cccc(Oc7ccc(C(C)(C)O)cc7-c7cn(C)c(=O)c8[nH]ccc78)c6)CC5)CC4)ncc3Cl)ccc2n(C)c1=O` [Compound I-39]: the Kd in test [1] lay within 10 to 100 nM. Further, the GI50 in test [3], in test [5] and in test [6] was less than 500 nM throughout. Further, the IC50 in test [4] is 5 to 50 nM; in test [7], less than 5 nM.

In test [1], `CNC(=O)COc1cc2cc(Nc3nc(N4CCC(N5CCN(Cc6ccc(Oc7ccc(C(C)(C)O)cc7-c7cn(C)c(=O)c8[nH]ccc78)cc6)CC5)CC4)ncc3Cl)ccc2n(C)c1=O` [Compound I-48] returned a Kd of 10 to 100 nM. The GI50 in test [3], in test [5] and in test [6] was less than 500 nM throughout. Further, the 50% inhibitory concentration (IC50) in test [4] and in test [7] was less than 5 nM each time.

A word on the Kd: it is the concentration at which binding is half-saturated. Usually GI50 stands for the concentration that inhibits growth by half. Low values mean greater sensitivity of the cells, high ones lower sensitivity of the cells. The term IC50 denotes the concentration needed to halve the response being measured. A low value points to inhibition by little substance.
